# Experimental data as given in PubChem BioAssay AID2060905 (Molecular Pharmacology Branch, DTP, NCI, 2025).
# Tested on: 282377-053-R-J1-PDC complex spheroid viability
# Assay: Anticancer human tumor 282377-053-R-J1-PDC patient-derived colon adenocarcinoma cell line growth inhibition [RAS]
# Conditions: for IC50: curve of first compound; for viability, T/C: stronger effect = lower value
# Summary of the method: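 Agents were tested in combination matrices in half-log decrements from a top concentration at or near clinical Cmax (10 microM if undetermined). Targets were multi-cell spheroids of tumour lines plus HUVEC and MSC stromal cells.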
# 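Also: spheroids exposed to agents for seven days before readout.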
# 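For viability, T/C in this document: luminescence viability as percent of DMSO vehicle control wells.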
compound,measurement,setting,value
CCc1c2c(nc3ccc(O)cc13)-c1cc3c(c(=O)n1C2)COC(=O)[C@]3(O)CC + CCn1c(-c2cc(N3CCN(C)CC3)cnc2C(C)OC)c2c3cc(ccc31)-c1csc(n1)CC(NC(=O)C1CC1C)C(=O)N1CCCC(N1)C(=O)OCC(C)(C)C2,IC50,second compound 0.000949 µM,> 300 nM
same,IC50,second compound 0.003 µM,> 300 nM
same,IC50,second compound 0.00949 µM,> 300 nM
same,IC50,second compound 0.03 µM,> 300 nM
same,IC50,second compound 0.0949 µM,> 300 nM
same,IC50,second compound 0.3 µM,> 300 nM
same,"viability, T/C","second compound 0.000949 µM, first compound 0.000949 µM",130%
same,"viability, T/C","second compound 0.000949 µM, first compound 0.003 µM",112%
same,"viability, T/C","second compound 0.000949 µM, first compound 0.00949 µM",153%
same,"viability, T/C","second compound 0.000949 µM, first compound 0.03 µM",124%
same,"viability, T/C","second compound 0.000949 µM, first compound 0.0949 µM",86.5%
same,"viability, T/C","second compound 0.000949 µM, first compound 0.3 µM",81%
same,"viability, T/C","second compound 0.003 µM, first compound 0.000949 µM",109%
same,"viability, T/C","second compound 0.003 µM, first compound 0.003 µM",114%
same,"viability, T/C","second compound 0.003 µM, first compound 0.00949 µM",151%
same,"viability, T/C","second compound 0.003 µM, first compound 0.03 µM",107%
same,"viability, T/C","second compound 0.003 µM, first compound 0.0949 µM",119%
same,"viability, T/C","second compound 0.003 µM, first compound 0.3 µM",66.2%
same,"viability, T/C","second compound 0.00949 µM, first compound 0.000949 µM",107%
same,"viability, T/C","second compound 0.00949 µM, first compound 0.003 µM",112%
same,"viability, T/C","second compound 0.00949 µM, first compound 0.00949 µM",136%
same,"viability, T/C","second compound 0.00949 µM, first compound 0.03 µM",105%
same,"viability, T/C","second compound 0.00949 µM, first compound 0.0949 µM",112%
same,"viability, T/C","second compound 0.00949 µM, first compound 0.3 µM",77.2%
same,"viability, T/C","second compound 0.03 µM, first compound 0.000949 µM",116%
same,"viability, T/C","second compound 0.03 µM, first compound 0.003 µM",102%
same,"viability, T/C","second compound 0.03 µM, first compound 0.00949 µM",139%
same,"viability, T/C","second compound 0.03 µM, first compound 0.03 µM",122%
same,"viability, T/C","second compound 0.03 µM, first compound 0.0949 µM",118%
same,"viability, T/C","second compound 0.03 µM, first compound 0.3 µM",65.4%
same,"viability, T/C","second compound 0.0949 µM, first compound 0.000949 µM",115%
same,"viability, T/C","second compound 0.0949 µM, first compound 0.003 µM",122%
same,"viability, T/C","second compound 0.0949 µM, first compound 0.00949 µM",162%
same,"viability, T/C","second compound 0.0949 µM, first compound 0.03 µM",131%
same,"viability, T/C","second compound 0.0949 µM, first compound 0.0949 µM",116%
same,"viability, T/C","second compound 0.0949 µM, first compound 0.3 µM",69.4%
same,"viability, T/C","second compound 0.3 µM, first compound 0.000949 µM",131%
same,"viability, T/C","second compound 0.3 µM, first compound 0.003 µM",131%
same,"viability, T/C","second compound 0.3 µM, first compound 0.00949 µM",161%
same,"viability, T/C","second compound 0.3 µM, first compound 0.03 µM",104%
same,"viability, T/C","second compound 0.3 µM, first compound 0.0949 µM",109%
same,"viability, T/C","second compound 0.3 µM, first compound 0.3 µM",77.9%
C=CC(=O)Nc1cc(Nc2nccc(-c3cn(C)c4ccccc34)n2)c(OC)cc1N(C)CCN(C)C + CCn1c(-c2cccnc2C(C)OC)c2c3cc(ccc31)N1CCOC(CC(NC(=O)C(C(C)C)N(C)C(=O)C3(F)CCN(C(=O)C#CC(C)(C)N(C)C)CC3)C(=O)N3CCCC(N3)C(=O)OCC(C)(C)C2)C1,IC50,second compound 0.000949 µM,> 1000 nM
same,IC50,second compound 0.003 µM,> 1000 nM
same,IC50,second compound 0.00949 µM,> 1000 nM
same,IC50,second compound 0.03 µM,> 1000 nM
same,IC50,second compound 0.0949 µM,> 1000 nM
same,IC50,second compound 0.3 µM,> 1000 nM
same,"viability, T/C","second compound 0.000949 µM, first compound 0.00316 µM",99%
same,"viability, T/C","second compound 0.000949 µM, first compound 0.01 µM",126%
same,"viability, T/C","second compound 0.000949 µM, first compound 0.0316 µM",127%
same,"viability, T/C","second compound 0.000949 µM, first compound 0.1 µM",92%
same,"viability, T/C","second compound 0.000949 µM, first compound 0.316 µM",86%
same,"viability, T/C","second compound 0.000949 µM, first compound 1 µM",123%
same,"viability, T/C","second compound 0.003 µM, first compound 0.00316 µM",109%
same,"viability, T/C","second compound 0.003 µM, first compound 0.01 µM",177%
same,"viability, T/C","second compound 0.003 µM, first compound 0.0316 µM",108%
same,"viability, T/C","second compound 0.003 µM, first compound 0.1 µM",81%
same,"viability, T/C","second compound 0.003 µM, first compound 0.316 µM",92.6%
same,"viability, T/C","second compound 0.003 µM, first compound 1 µM",88%
same,"viability, T/C","second compound 0.00949 µM, first compound 0.00316 µM",88%
same,"viability, T/C","second compound 0.00949 µM, first compound 0.01 µM",188%
same,"viability, T/C","second compound 0.00949 µM, first compound 0.0316 µM",98%
same,"viability, T/C","second compound 0.00949 µM, first compound 0.1 µM",84.8%
same,"viability, T/C","second compound 0.00949 µM, first compound 0.316 µM",91.5%
same,"viability, T/C","second compound 0.00949 µM, first compound 1 µM",119%
same,"viability, T/C","second compound 0.03 µM, first compound 0.00316 µM",102%
same,"viability, T/C","second compound 0.03 µM, first compound 0.01 µM",140%
same,"viability, T/C","second compound 0.03 µM, first compound 0.0316 µM",113%
same,"viability, T/C","second compound 0.03 µM, first compound 0.1 µM",114%
same,"viability, T/C","second compound 0.03 µM, first compound 0.316 µM",86.9%
same,"viability, T/C","second compound 0.03 µM, first compound 1 µM",97.4%
same,"viability, T/C","second compound 0.0949 µM, first compound 0.00316 µM",95.8%
same,"viability, T/C","second compound 0.0949 µM, first compound 0.01 µM",153%
same,"viability, T/C","second compound 0.0949 µM, first compound 0.0316 µM",93.9%
same,"viability, T/C","second compound 0.0949 µM, first compound 0.1 µM",98.5%
same,"viability, T/C","second compound 0.0949 µM, first compound 0.316 µM",87.1%
same,"viability, T/C","second compound 0.0949 µM, first compound 1 µM",124%
same,"viability, T/C","second compound 0.3 µM, first compound 0.00316 µM",85.7%
same,"viability, T/C","second compound 0.3 µM, first compound 0.01 µM",134%
same,"viability, T/C","second compound 0.3 µM, first compound 0.0316 µM",99.5%
same,"viability, T/C","second compound 0.3 µM, first compound 0.1 µM",102%
same,"viability, T/C","second compound 0.3 µM, first compound 0.316 µM",97.2%
same,"viability, T/C","second compound 0.3 µM, first compound 1 µM",121%
